# Data: US10131649B2, “Bicyclic compounds as pest control agents” (BAYER CROPSCIENCE AKTIENGESELLSCHAFT, priority 2014, dated 2018)
# Read-outs that look alike come from different tables or passages of the source.
# Experiments:
# [1] = log P by HPLC on reversed-phase columns (OECD Guideline 117), [a] acidic pH 2.7, [b] neutral pH 7.8; type: physicochemical; settings: reversed-phase (C18) HPLC column
# Method: The log P values were determined in accordance with OECD Guideline 117 (EC Directive 92/69/EEC) by HPLC (high-performance liquid chromatography) using reversed-phase (RP) columns (C18), by the following methods:
# [a] The LC-MS determination in the acidic range is carried out at pH 2.7 with 0.1% aqueous formic acid and acetonitrile (contains 0.1% formic acid) as eluents; linear gradient from 10% acetonitrile to 95% acetonitrile.
# [b] LC-MS determination in the neutral range is effected at pH 7.8 with 0.001 molar aqueous ammonium hydrogencarbonate solution and acetonitrile as eluents; linear gradient from 10% acetonitrile to 95% acetonitrile.
# Calibration is carried out using unbranched alkan-2-ones (having 3 to 16 carbon atoms) with known log P values (log P values determined on the basis of the retention times by linear interpolation between two successive alkanones).
# [2] = system: engorged adult female cattle ticks (Boophilus microplus); assay: Boophilus microplus injection test; type: in vivo; settings: application rate 20 μg/animal, assessed after 7 days, 100% = no tick laid fertile eggs
# Method: Boophilus microplus—Injection Test
# Solvent: dimethyl sulphoxide
# To produce a suitable preparation of active compound, 10 mg of active compound are mixed with 0.5 ml of solvent and the concentrate is diluted with solvent to the desired concentration.
# 1 μl of the active compound solution is injected into the abdomen of 5 engorged adult female cattle ticks (Boophilus microplus). The animals are transferred into dishes and kept in a climate-controlled room.
# Efficacy is assessed after 7 days by laying of fertile eggs. Eggs which are not externally visibly fertile are stored in a climate-controlled cabinet until the larvae hatch after about 42 days. An efficacy of 100% means that none of the ticks has laid any fertile eggs; 0% means that all the eggs are fertile.
# [3] = system: green peach aphid (Myzus persicae); assay: Myzus persicae spray test (Chinese cabbage leaf discs); type: in vivo; settings: foliar, 144 h, read-out: efficacy in %
# Method: Myzus persicae—Spray Test
# Solvent: • 78 parts by weight of acetone • 1.5 parts by weight of dimethylformamide
# Emulsifier: alkylaryl polyglycol ether
# To produce a suitable preparation of active compound, 1 part by weight of active compound is dissolved using the specified parts by weight of solvent and made up with water containing an emulsifier concentration of 1000 ppm until the desired concentration is attained. To produce further test concentrations, the formulation is diluted with emulsifier-containing water.
# Discs of Chinese cabbage leaves (Brassica pekinensis) infested by all stages of the green peach aphid (Myzus persicae) are sprayed with an active compound formulation of the desired concentration.
# After 6 days, the efficacy in % is determined. 100% means that all the aphids have been killed; 0% means that no aphids have been killed.
smiles,measurement,setting,value
"Cc1cc(F)c(-c2ccc3nn(-c4cccnc4)cc3c2)cc1[S+]([O-])CC(F)(F)F (stereo not shown) [Example 52, 5-[2-Fluoro-4-methyl-5-(2,2,2-trifluoroethylsulphinyl)phenyl]-2-(3-pyridyl)indazole]",chromatographic logP,"[1]; acidic pH 2.7, read-out: logP[a]",2.8
same,chromatographic logP,"[1]; neutral pH 7.8, read-out: logP[b]",2.74
same,efficacy (laying of fertile eggs),[2],100%
same,pest or weed control at 500 g/ha,[3],100%
